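Briefly, cells in 96-well plates were exposed to five compound concentrations for 48 h, and endpoints were estimated by linear interpolation. Here, GI50 denotes the concentration required for 50% inhibition of growth. TGI is the concentration that stops growth completely.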
Tested on: MDA-MB-468 breast
Assay: NCI anticancer screen, dose series, 48 h

Structure (SMILES)	GI50 [nM]	TGI [nM]
Cc1ccc2nc(-c3ccc(OCC(=O)N=Nc4c(O)[nH]c5ccccc45)cc3)[nH]c2c1	2090	4900
CCN1CCN(c2cc(C)nc(N(CCCNc3ccnc4cc(Cl)ccc34)Cc3ccc4c(c3)OCO4)n2)CC1	1820	4250
NC(=O)[C@@H](CC1CC1)[C@@H](CCC(F)(F)F)C(=O)N[C@H]1N=C(c2ccccc2)c2cccc(F)c2NC1=O	> 100000	> 100000
Cc1cc(C)c2c(n1)sc1c(N)ncnc12	19900	> 25000
CC1CN(S(=O)(=O)c2oc(-c3ccc(Cl)cc3)nc2C#N)CC(C)O1 (stereo not given)	1870	4160
C=C1C(=O)O[C@H]2[C@H]1CC/C(COC(=O)NCc1ccc(OC)cc1)=C\CC[C@@]1(C)O[C@@H]21	352	1750
O=C(/C=C/c1ccc(C(F)(F)F)cc1)Nc1ccc(C=C2c3ccccc3C(=O)c3ccccc32)cc1	1990	20800
CN1CCN(CCOc2ccc(-c3cnc4c(-c5cccc(F)c5)cnn4c3)cc2)CC1	1670	3250
O=C(Nc1ccc(F)cc1F)c1cc(Cl)ccc1O	1640	5070
CCCCCN(CCCCC)CC(O)c1cc(Cl)ccc1OC (stereo not given)	9710	23100
CN(Cc1ccc(C(F)(F)F)cc1)CC(O)C(=O)Nc1ccc(Cl)cc1 (stereo not given)	1370	2910
CN(C)CCNC(=O)c1ccc(-c2nc3ccc4[nH]ncc4c3c3c2C2CCC3C2)cc1 (stereo not given)	1120	3140
CCn1c(-c2cc3c([nH]c4ccccc43)c(-c3cccc(O)c3)n2)n[nH]c1=S	3190	15200
N#C/C(=C\c1ccc([N+](=O)[O-])s1)c1nc2cc(Cl)ccc2s1	2360	5760
CCC(C)Oc1nc2c(c(=O)n(C)c(=O)n2C)n1C (stereo not given)	> 100000	> 100000
C#CCNC(=S)N/N=C(\C)c1ccccn1	33.5	273
NS(=O)(=O)c1ccc(N=Nc2c(O)[nH]c3ccc(C(=O)NCc4ccncc4)cc23)cc1	> 25000	> 25000
COC(=O)C12CC(NC(=O)c3csc([C@@H](C[C@H](C(C)C)N(C)C(=O)[C@@H](NC(=O)[C@H]4CCCCN4C)C4CC4)OC(C)=O)n3)(C1)C2	16.9	> 16700
Cc1cc(Nc2nc(C(=O)Nc3ccccc3)nc3ccccc23)n[nH]1	9150	> 25000
COc1cc2ncnc(-n3ncc4cc(NC(=O)Nc5ccc(Cl)c(Cl)c5)ccc43)c2cc1OC	2170	4520

Structure (SMILES)	GI50 [nM]	TGI [nM]
O=S1(=O)N(Cc2ccccc2)[C@@H](Cc2ccccc2)[C@H](O)[C@H](O)[C@H](Cc2ccccc2)N1Cc1ccccc1	2980	7170
CN1CCN(Cc2ccc(NC(=O)c3cncc(C#Cc4cnc(N)cc4C#N)c3)cc2C(F)(F)F)CC1	2010	5300
CCN1CCN(Cc2ccc(NC(=O)Nc3nc4ccc(Oc5ccnc(C(=O)NC)c5)cc4s3)cc2C(F)(F)F)CC1	1660	3200
CC(Nc1c(C#N)cnc2ccc(-c3cncc(-c4n[nH]c(=O)o4)c3)cc12)c1ccccc1 (stereo not given)	1230	3660
COc1ccc(/C=C/C(=O)c2ccc(-n3cc(CN4CCN(c5cc6c(cc5F)c(=O)c(C(=O)O)cn6C5CC5)CC4)nn3)cc2)cc1OC	1960	5240
CSc1ccc(/C(=N/N=C(N)N)c2ccccc2)cc1	451	8600
C1=C/COCc2cc(ccc2OCCN2CCCC2)Nc2nccc(n2)-c2ccc(o2)COC/1	1490	3180
COC(=O)C(CCC(=O)CCl)N1C(=O)c2ccccc2C1=O (stereo not given)	2110	5610
Cc1ncc(C(=O)Nc2ccc(CN3CCN(C)CC3)c(C(F)(F)F)c2)cc1C#Cc1ccc(N)nc1	368	2120
CCCCCCCCOC(=O)c1c(C)[nH]c(/C=C2\N=C(c3ccc[nH]3)C=C2OC)c1C	86.8	2670
O=C1C2=C(C(=O)c3cnccc31)C1C=CC2CC1 (stereo not given)	185	416
CSc1ncc(Br)c(Sc2nc(N)nc3nc[nH]c23)n1	2360	19700
O=C(Nc1ccc(-n2ccc3c(NC(=O)c4ccccc4)ncnc32)cc1)c1cccc(C(F)(F)F)c1	4050	20400
CC1=C2C(=CC(C)(C)[C@@H]2O)C(=O)[C@](C)(O)C12CC2	12.9	36.2
NCCCCC1NC(=O)C(CC(=O)O)NC(=O)CNC(=O)C(CCCN=C(N)N)NC(=O)C(N)CSSCC(C(=O)O)NC(=O)C(CC(=O)O)NC(=O)C2CCCN2C(=O)CNC1=O (stereo not given)	> 100000	> 100000
C=C/C(C)=C/C[C@]1(C)[C@H](C)[C@@H](OC(=O)CCC)[C@H](O)[C@@]23C(=C[C@H](OC)C[C@@H]12)[C@@H](OC(=O)CCC)O[C@H]3OC(C)=O	337	1240
CC(C)c1nc(N(C)S(C)(=O)=O)nc(-c2ccc(F)cc2)c1/C=C/[C@@H](O)C[C@@H](O)CC(=O)O	18500	69300
c1cc(-c2nnc(SSc3ncnc4nc[nH]c34)o2)ccn1	251	967
CCN(Cc1cc(F)ccc1F)c1ccc(CO)c(Cl)c1	16.4	41.1
COc1cccc(CN(C)c2ccc(CO)c(Cl)c2)c1	20.9	60

Reference: PubChem BioAssay (NCI)
